The numbers were not newly measured in patent publication US7311392B2, “Inkjet recording ink and method of inkjet recording” (Fujifilm Corporation, priority 2002, dated 2007), which cites them from elsewhere.

A value given as a limit tells only on which side of the number the result lay.

For the series the following is noted: 20° C.; water-miscible organic solvent of the ink.
Regarding `CC(C)O` [Compound 2-Propanol, 2-Propanol], the “Vapor Pressure [Pa]” value is 4320 (20° C.) Pa. `OCC(O)CO` [Glycerin]: the “Vapor Pressure [Pa]” value is given as 0.3 (20° C.) Pa. Turning to `OCCOCCO` [Diethylene glycol], the “Vapor Pressure [Pa]” value was <1.3 (20° C.) Pa. Turning to `CCCCOCCOCCOCCO` [Triethylene glycol monobutyl ether], the “Vapor Pressure [Pa]” value is <1.3 (20° C.) Pa.

As to `COCC(C)O` (centres unmarked) [Compound 1-Methoxy-2-propanol, 1-Methoxy-2-propanol], the “Vapor Pressure [Pa]” value is reported as 1013 (20° C.) Pa.
